The source made the active and inactive calls. The calls are words filed in the database; no cut-off is given here.
Assays:
Vero = assay: Cytotoxicity against African green monkey Vero cells by MTT assay; format: cell-based; conditions: Chlorocebus sabaeus
HeLa [1] = assay: Cytotoxicity against human HeLa cells by MTT assay
A549 = assay: Cytotoxicity against human A549 cells by MTT assay; format: functional, cell-based
[2] = Cytotoxicity against human HCT116 cells by MTT assay; format: functional, cell-based; conditions: HCT-116
EAT [3] = assay: Antitumor activity against mouse EAT implanted in Swiss albino mouse assessed as reduction in body weight at 10 mg/kg injected into peritoneum and measured on day 11; format: functional, organism-based; parameters: dose 10 mg/kg
HeLa [4] = assay: Induction of apoptosis in human HeLa cells assessed as accumulation at subG1 phase at 25 uM by propidium iodide staining based flow cytometry; format: functional, cell-based; conditions: TDE = time-dependent effect
EAT [5] = assay: Antitumor activity against mouse EAT implanted in Swiss albino mouse assessed as reduction in tumor cell viability at 10 mg/kg injected into peritoneum and measured on day 12 by trypan blue dye exclusion assay; format: functional, organism-based; parameters: dose 10 mg/kg
EAT [6] = assay: Antitumor activity against mouse EAT implanted in Swiss albino mouse assessed as reduction in ascites fluid volume at 10 mg/kg injected into peritoneum and measured on day 12; format: functional, organism-based; parameters: dose 10 mg/kg
[7] = Inhibition of VEGF production in mouse EAT implanted in Swiss albino mouse peritoneal cavity at 10 mg/kg injected into peritoneum by ELISA method (reference value: 2412 +/- 10 ng); format: functional
EAT [8] = assay: […] of apoptosis in mouse EAT implanted in Swiss albino mouse assessed as induction of apoptotic bodies formation at 10 mg/kg injected into peritoneum by Giemsa staining based microscopy; format: functional, organism-based; parameters: dose 10 mg/kg
EAT [9] = assay: (§1) Inhibition of peritoneal angiogenesis of mouse EAT implanted in Swiss albino mouse assessed as reduction in micro vessel density at 10 mg/kg injected into peritoneum by hematoxylin and eosin staining method; format: functional, organism-based; parameters: dose 10 mg/kg
EAT [10] = assay: […] of apoptosis in mouse EAT implanted in Swiss albino mouse assessed as induction of DNA fragmentation at 10 mg/kg injected into peritoneum by ethidium bromide staining based electrophoresis method; format: functional, organism-based; parameters: dose 10 mg/kg
[11] = as §1, with “density by measuring number of micro vessels per high power field” for “density”, “method (reference value: 54 +/- 6 vessels/high power field)” for “method”; format: functional
EAT [12] = assay: […] of apoptosis in mouse EAT implanted in Swiss albino mouse assessed as induction of small blebs formation at 10 mg/kg injected into peritoneum by Giemsa staining based microscopy; format: functional, organism-based; parameters: dose 10 mg/kg
EAT [13] = assay: […] of apoptosis in mouse EAT implanted in Swiss albino mouse assessed as induction of cell shrinkage at 10 mg/kg injected into peritoneum by Giemsa staining based microscopy; format: functional, organism-based; parameters: dose 10 mg/kg
EAT [14] = assay: Inhibition of peritoneal angiogenesis of mouse EAT implanted in Swiss albino mouse at 10 mg/kg injected into peritoneum; format: functional, organism-based; parameters: dose 10 mg/kg

`CCCc1nc2c(C)cc(-c3nc4ccccc4n3C)cc2n1S(=O)(=O)c1ccccc1` showed an IC50 (Vero) of over 50 µM, an IC50 (HeLa [1]) of 23.8 µM and an IC50 (A549) of over 50 µM. It also gave an IC50 [2] of over 50 µM.

Work on `CCCc1nc2c(C)cc(-c3nc4ccccc4n3C)cc2n1S(=O)(=O)c1ccc(Br)cc1` yielded an IC50 (Vero) of over 50 µM, an IC50 (HeLa [1]) of 24.7 µM and an IC50 (A549) of 35.1 µM. It also gave an IC50 [2] of 49.3 µM.

For `CCCc1nc2c(C)cc(-c3nc4ccccc4n3C)cc2n1S(=O)(=O)c1cc(Cl)ccc1Cl`, the IC50 (HeLa [1]) was over 50 µM.

In the case of `CCCc1nc2c(C)cc(-c3nc4ccccc4n3C)cc2n1S(=O)(=O)c1c(C)cc(C)cc1C`, the IC50 (Vero) is reported as over 50 µM, the IC50 (HeLa [1]) is reported as 21 µM and the IC50 (A549) is reported as over 50 µM. For the same molecule, the IC50 [2] was 29.9 µM.

In the case of `CCCc1nc2c(C)cc(-c3nc4ccccc4n3C)cc2n1S(=O)(=O)c1ccc(F)cc1`, the inhibition (EAT [3]) is reported as “Active”, the Activity (HeLa [4]) is reported as “tde” and the inhibition (EAT [5]) is reported as “Active”. The IC50 (Vero) was over 50 µM, the inhibition (EAT [6]) was “Active” and the Activity [7] was 225 ng. For the same molecule, the IC50 (HeLa [1]) was 16.7 µM, the Activity (EAT [8]) was “Active” and the IC50 (A549) was 32.2 µM. The inhibition (EAT [9]) was “Active”, the Activity (EAT [10]) was “Active” and the Activity [11] was 8. The Activity (EAT [12]) was “Active”, the Activity (EAT [13]) was “Active” and the inhibition (EAT [14]) was “Active”. The IC50 [2] was 19.9 µM.

`CCCc1nc2c(C)cc(-c3nc4ccccc4n3C)cc2n1S(=O)(=O)c1ccc(C)cc1` gave an IC50 (Vero) of over 50 µM, an IC50 (HeLa [1]) of 20.1 µM and an IC50 (A549) of over 50 µM. For the same molecule, the IC50 [2] was 41.6 µM.

Molecule `CCCc1nc2c(C)cc(-c3nc4ccccc4n3C)cc2n1S(=O)(=O)c1ccc(Cl)cc1` has an IC50 (Vero) of over 50 µM, an IC50 (HeLa [1]) of 21.4 µM and an IC50 (A549) of over 50 µM. For the same molecule, the IC50 [2] was 36.8 µM.

Molecule `CCCc1nc2c(C)cc(-c3nc4ccccc4n3C)cc2n1S(=O)(=O)c1ccccc1Cl` has an IC50 (HeLa [1]) of over 50 µM.

In the case of `CCCc1nc2c(C)cc(-c3nc4ccccc4n3C)cc2n1S(=O)(=O)c1ccc(OC)cc1`, the IC50 (Vero) is reported as over 50 µM, the IC50 (HeLa [1]) is reported as 18.3 µM and the IC50 (A549) is reported as 34.7 µM. The IC50 [2] was 19.1 µM.

`CCCc1nc2c(C)cc(-c3nc4ccccc4n3C)cc2n1S(=O)(=O)c1ccccc1Br` showed an IC50 (HeLa [1]) of over 50 µM.

Source: ChEMBL document CHEMBL3425451, “Novel synthetic bisbenzimidazole that targets angiogenesis in Ehrlich ascites carcinoma bearing mice” (Bioorg Med Chem Lett, 2015)
